The values below come from US12268665B2, “Combination of immunotherapies with MDM2 inhibitors” (ASCENTAGE PHARMA (SUZHOU) CO., LTD., priority 2018, dated 2025).

Data set [1] concerns CD4+ T cells isolated from mouse spleens. The data set can be described thus: Activation of CD4+ T cells by APG-115 (flow cytometry). It counts as cell-based. The protocol: Effector T cells play a critical role in antitumor immunity. To investigate whether APG-115 influenced T cell function, CD4^+ T cells isolated from mouse spleens were exposed to APG-115 or solvent control DMSO.
Specifically, CD4^+ T cells were positively selected from mouse spleens using magnetic beads and stimulated with 5 μg/ml plate-bound anti-CD3 and 2 μg/ml anti-CD28 in the presence of APG-115 (250 nM) or DMSO for 24 h (Day 1) or 48 h (Day 2). The percentages of CD25-expressing and CD62L-expressing populations (top panel), and FSC (lower panel) were determined by flow cytometry.
Background: A flow cytometer gives signals particle by particle.

Data set [2] deals with serum MIC-1 (PD marker of TP53 activation). The data set can be described thus: Phase I study APG-115-US-001: pharmacodynamics. It counts as in vivo, human. To be noted: within the dose range tested. The text has this: (§1) This Phase I study (APG-115-US-001) was designed to assess safety, toxicity, pharmacokinetics (PK), pharmacodynamics (PD), and antitumor activity of APG-115 orally in patients with advanced solid tumors in US (NCT02935907).

The nature of data set [3]: Phase I study APG-115-US-001 (NCT02935907): safety. It counts as in vivo. The protocol:
as §1
For Safety study of APG-115, the safety evaluation included vital signs, electrocardiogram (ECG) parameters, Easter Cooperative Oncology Group (ECOG) performance status data, clinical laboratory tests and adverse event data. Safety assessments were performed in each treatment cycle.
Single dose escalation study was conducted. A standard “3+3” design was employed to determine the maximum tolerated dose (MTD) of APG-115 by assessing the dose limiting toxicity (DLT) of APG-115. […] of APG-115 was tested: 10, 20, 50, 100, 200, and 300 mg. APG-115 was administrated orally every other day (QOD) for a consecutive 3 weeks (i.e. dosed at Day 1, 3, 5, 7, 9, 11, 13, 15, 17, 19, and 21), with one week dosing off as 4-weeks a cycle. […] The scheme of the trial design is provided below.

Data set [4] concerns Trp53 mutant MC38 syngeneic murine colon tumor. Briefly: In vivo efficacy study in MC38 model. Details: species or system mouse. To be noted: for T/C (%) d17 / RTV (Mean ± SEM) d17: anti-PD-1 5 mg/kg i.p. biw; for RTV (Mean ± SEM) d17: C57BL/6 mice. Here is the method:
Each mouse was inoculated subcutaneously at the right flank region with MC38 tumor cells (5×10^5) in 0.1 mL of PBS for tumor development. The treatments were initiated when the mean tumor size reached ˜63 mm^3. The test articles were administered to the tumor-bearing mice according to the regimen shown in the experimental design Table 10. The day of start dosing was defined as d1.
Efficacy of combination treatment with APG-115 plus anti-PD-1 antibody was further evaluated in a Trp53 mutant MC38 syngeneic mouse tumor model on a C57BL/6 background.

The subject of a further data set is MH-22A cells. Briefly: PD-L1 expression on tumor cells (Western blotting, flow cytometry). The class given is cell-based, mouse. To be noted: 72 h. The protocol:
Transcription factor p53 is involved in the regulation of PD-L1 expression (Cortez M A, 2015), which might serve as an indicator of the efficacy of anti-PD-1/PD-L1 treatment. Besides the effects on T cells, how APG-115 effects PD-L1 expression on MH-22A tumor cells was also investigated in vitro.
MH-22A cells were treated with indicated doses of APG-115 for 72 h. The expression levels of MDM2, p53, total STAT3 (t-STAT3), phosphorylated STAT3 (p-STAT3), PD-L1, and β-actin (loading control) expression were determined by Western blotting. PD-L1 expression levels which were reflected by fluorescence intensity were determined by flow cytometry.

[5] abbreviates: 250 nM, anti-CD3/anti-CD28 stimulated, 24 h or 48 h.

With `CCN1[C@@H](C(=O)NC23CCC(C(=O)O)(CC2)CC3)[C@H](c2cccc(Cl)c2F)[C@]2(C(=O)Nc3cc(Cl)ccc32)C12CCCCC2` [APG-115], in data set [1] (250 nM of APG-115), the “caspase 3 cleavage in T cells” value is “not detected”. In addition, in data set [1] (setting [5]), the “CD25^highCD62L^low cell populations” value is recorded as “rapid increase” and the “cell size of stimulated CD4+ T cells (FSC)” value is “increase in cell size”. Moreover, the “Serum MIC-1 increase” value in data set [2] is reported as “exposure dependent”. In data set [3] (QOD 3 weeks on, 1 week off), the “MTD/RP2D of APG-115 monotherapy” value is recorded as 100 mg. For the same molecule, the “pts discontinued treatment: Adverse Event” value in data set [3] (human, in vivo) is reported as 3. Moreover, in data set [3] (in vivo), the “DLTs observed during cycle 1” value was “Four”; the “events determined as DLTs” value is “Platelet count decreased, fatigue, and nausea”; the “patients with Absolute neutrophil count decreased (less than 1.00×10^3/uL) after C2D21” value is given as “three patients”. In addition, in data set [4] (APG-115 10 mg/kg p.o. q2d), the “T/C (%) d17” value turned out to be 73% and the “RTV (Mean ± SEM) d17” value is given as 15.3 ± 2.7. For the same molecule, in data set [4] (APG-115 50 mg/kg p.o. q2d), the “T/C (%) d17” value stood at 94% and the “RTV (Mean ± SEM) d17” value turned out to be 19.8 ± 2.2. Further, in data set [4] (APG-115 10 and 50 mg/kg), the “antitumor activity as single agent” value is “minimal antitumor activity”. Besides, in the data set on MH-22A cells (Western blotting), the “expression of TP53 and pSTAT3 proteins” value is “upregulated in a dose-dependent manner”. In the data set on MH-22A cells (flow cytometry), the “surface expression of PD-L1” value is reported as “dose-dependent increase”.
